In ChEMBL document CHEMBL3885861, “Open TG-GATES”:

Organism: Rattus norvegicus
Experiment: Open TG-GATES - Regimen: Daily Repeat
Type: toxicity, organism-based, Sprague-Dawley
Set-up: regimen Daily Repeat, gender Male, age 6 weeks
Settings: in vivo, po, route gavage; for Bas / Eos / Fbg / Hb / Ht / MCHC / MCV / Mono / Neu / Plat / RBC / Ret / WBC: tissue Blood; for KIDNEY_L / KIDNEY_R / KIDNEY_TOTAL: tissue Kidney; for LIVER: tissue Liver; for ALP / AST / BUN / CRE / DBIL / GLC / K / LDH / Na / PL / RALB / TBIL / TC / TG / TP / gamma-GTP / IP: tissue Plasma
[1] = 0 mg/kg, 72 h, dose level Control, time 3 day
[2] = 0 mg/kg, […], dose level Control, time 7 day
[3] = 0 mg/kg, […], dose level Control, time 14 day
[4] = 0 mg/kg, […], dose level Control, time 28 day
[5] = 20 mg/kg, 72 h, dose level Low, time 3 day
[6] = 20 mg/kg, […], dose level Low, time 7 day
[7] = 20 mg/kg, […], dose level Low, time 14 day
[8] = 20 mg/kg, […], dose level Low, time 28 day

Which results are given for `CO[C@H]1/C=C/O[C@@]2(C)Oc3c(C)c(O)c4c(O)c(c(/C=N/N5CCN(C)CC5)c(O)c4c3C2=O)NC(=O)/C(C)=C\C=C\[C@H](C)[C@H](O)[C@@H](C)[C@@H](O)[C@@H](C)[C@H](OC(C)=O)[C@@H]1C` [RIFAMPIN]?
TERMINAL_BW [1]: 242.1 g; Bas [1]: 0%; Eos [1]: 1%; Fbg [1]: 239 mg/dL; Hb [1]: 13.9 g/dL; Ht [1]: 42%; MCHC [1]: 33.1%; MCV [1]: 63.9 fL; Mono [1]: 7.2%; Neu [1]: 13.8%; Plat [1]: 126 x10_4/uL; RBC [1]: 657.6 x10_4/ul; Ret [1]: 6.4%; WBC [1]: 129.1 x10_2/uL; KIDNEY_L [1]: 1 g; KIDNEY_R [1]: 1 g; KIDNEY_TOTAL [1]: 2 g; LIVER [1]: 12.4 g; ALP [1]: 966.4 IU/L; AST [1]: 62.4 IU/L; BUN [1]: 19 mg/dL; CRE [1]: 0.6 mg/dL; DBIL [1]: 0.004 mg/dL; GLC [1]: 199.2 mg/dL; K [1]: 5 meq/L; LDH [1]: 110.6 IU/L; Na [1]: 139.8 meq/L; PL [1]: 157 mg/dL; RALB [1]: 3.7 g/dL; TBIL [1]: 0.3 mg/dL; TC [1]: 83.8 mg/dL; TG [1]: 112.8 mg/dL; TP [1]: 6.1 g/dL; gamma-GTP [1]: 2 IU/L; TERMINAL_BW [2]: 275.2 g; TERMINAL_BW [3]: 316.4 g; TERMINAL_BW [4]: 390.1 g; Bas [2]: 0%; Eos [2]: 0%; Fbg [2]: 231.8 mg/dL; Hb [2]: 14.1 g/dL; Ht [2]: 42.8%; MCHC [2]: 33.1%; MCV [2]: 63.2 fL; Mono [2]: 6.2%; Neu [2]: 13.6%; Plat [2]: 107.2 x10_4/uL; RBC [2]: 677.2 x10_4/ul; Ret [2]: 5.8%; WBC [2]: 122.2 x10_2/uL; Bas [3]: 0%; Eos [3]: 0.8%; Fbg [3]: 235.6 mg/dL; Hb [3]: 15 g/dL; Ht [3]: 45%; MCV [3]: 59.6 fL; Mono [3]: 6%; Neu [3]: 11.8%; Plat [3]: 112.5 x10_4/uL; RBC [3]: 754.8 x10_4/ul; Ret [3]: 3.5%; WBC [3]: 153.6 x10_2/uL; Bas [4]: 0%; Eos [4]: 0.8%; Hb [4]: 15.7 g/dL; Ht [4]: 47%; MCHC [4]: 33.4%; MCV [4]: 58.9 fL; Mono [4]: 3%; Neu [4]: 12.4%; RBC [4]: 799.6 x10_4/ul; Ret [4]: 2.2%; KIDNEY_L [2]: 1.1 g; KIDNEY_R [2]: 1.1 g; KIDNEY_TOTAL [2]: 2.3 g; KIDNEY_L [3]: 1.2 g; KIDNEY_R [3]: 1.2 g; KIDNEY_TOTAL [3]: 2.4 g; KIDNEY_L [4]: 1.4 g; KIDNEY_R [4]: 1.4 g; KIDNEY_TOTAL [4]: 2.7 g; LIVER [2]: 13.1 g; LIVER [3]: 13.9 g; LIVER [4]: 16 g; ALP [2]: 827 IU/L; AST [2]: 68 IU/L; BUN [2]: 17.8 mg/dL; CRE [2]: 0.6 mg/dL; DBIL [2]: 0.004 mg/dL; GLC [2]: 198.6 mg/dL; IP [2]: 8.3 mg/dL; K [2]: 4.9 meq/L; LDH [2]: 108.4 IU/L; Na [2]: 140.6 meq/L; PL [2]: 150 mg/dL; RALB [2]: 3.9 g/dL; TBIL [2]: 0.3 mg/dL; TC [2]: 74.6 mg/dL; TG [2]: 132.6 mg/dL; TP [2]: 6.1 g/dL; gamma-GTP [2]: 1.8 IU/L; ALP [3]: 668.4 IU/L; AST [3]: 55.2 IU/L; BUN [3]: 18.2 mg/dL; CRE [3]: 0.6 mg/dL; DBIL [3]: 0.066 mg/dL; GLC [3]: 202.8 mg/dL; IP [3]: 7.9 mg/dL; K [3]: 5 meq/L; LDH [3]: 78.4 IU/L; Na [3]: 139.6 meq/L; PL [3]: 154.2 mg/dL; RALB [3]: 3.9 g/dL; TBIL [3]: 0.3 mg/dL; TC [3]: 68.6 mg/dL; TG [3]: 205.8 mg/dL; TP [3]: 6.3 g/dL; gamma-GTP [3]: 1.4 IU/L; ALP [4]: 557.2 IU/L; AST [4]: 56.4 IU/L; BUN [4]: 20.2 mg/dL; CRE [4]: 0.6 mg/dL; DBIL [4]: 0.014 mg/dL; GLC [4]: 179.8 mg/dL; IP [4]: 7.2 mg/dL; K [4]: 4.9 meq/L; LDH [4]: 77.2 IU/L; Na [4]: 140.6 meq/L; PL [4]: 157.4 mg/dL; RALB [4]: 4 g/dL; TBIL [4]: 0.3 mg/dL; TC [4]: 79.6 mg/dL; TG [4]: 165 mg/dL; TP [4]: 6.3 g/dL; gamma-GTP [4]: 0.8 IU/L; TERMINAL_BW [5]: 234.9 g; Bas [5]: 0%; Eos [5]: 0.8%; Fbg [5]: 239.4 mg/dL; Hb [5]: 14 g/dL; Ht [5]: 42.3%; MCHC [5]: 33%; MCV [5]: 62.8 fL; Mono [5]: 8%; Neu [5]: 7.2%; Plat [5]: 125.9 x10_4/uL; RBC [5]: 673.8 x10_4/ul; Ret [5]: 5.5%; WBC [5]: 119.2 x10_2/uL; KIDNEY_L [5]: 1 g; KIDNEY_R [5]: 1 g; KIDNEY_TOTAL [5]: 2 g; LIVER [5]: 10.7 g; ALP [5]: 787.6 IU/L; AST [5]: 66.8 IU/L; BUN [5]: 16 mg/dL; CRE [5]: 0.5 mg/dL; DBIL [5]: 0.002 mg/dL; GLC [5]: 194.8 mg/dL; IP [5]: 8.8 mg/dL; K [5]: 4.6 meq/L; LDH [5]: 113.2 IU/L; Na [5]: 139.4 meq/L; RALB [5]: 3.6 g/dL; TBIL [5]: 0.3 mg/dL; TC [5]: 73.4 mg/dL; TG [5]: 66 mg/dL; TP [5]: 5.8 g/dL; gamma-GTP [5]: 1.8 IU/L; TERMINAL_BW [6]: 264.5 g; TERMINAL_BW [7]: 308 g; TERMINAL_BW [8]: 375.5 g; Bas [6]: 0%; Eos [6]: 0.8%; Fbg [6]: 232.6 mg/dL; Hb [6]: 14 g/dL; Ht [6]: 41.7%; MCHC [6]: 33.4%; MCV [6]: 63.4 fL; Mono [6]: 4.8%; Neu [6]: 9%; Plat [6]: 115.2 x10_4/uL; RBC [6]: 658 x10_4/ul; Ret [6]: 5.9%; WBC [6]: 129.4 x10_2/uL; Bas [7]: 0%; Eos [7]: 0.8%; Fbg [7]: 227.2 mg/dL; Hb [7]: 14.7 g/dL; Ht [7]: 44%; MCHC [7]: 33.4%; MCV [7]: 60.7 fL; Mono [7]: 2.8%; Neu [7]: 6%; Plat [7]: 121.9 x10_4/uL; RBC [7]: 726.2 x10_4/ul; Ret [7]: 3.5%; WBC [7]: 131.2 x10_2/uL; Bas [8]: 0%; Eos [8]: 1%; Fbg [8]: 225 mg/dL; Hb [8]: 15.6 g/dL; Ht [8]: 46.4%; MCHC [8]: 33.5%; MCV [8]: 56.7 fL; Mono [8]: 4.4%; Neu [8]: 7.6%; Plat [8]: 107.2 x10_4/uL; RBC [8]: 819 x10_4/ul; Ret [8]: 2%; WBC [8]: 119 x10_2/uL; KIDNEY_L [6]: 1.1 g; KIDNEY_R [6]: 1.1 g; KIDNEY_TOTAL [6]: 2.2 g; KIDNEY_L [7]: 1.2 g; KIDNEY_R [7]: 1.3 g; KIDNEY_TOTAL [7]: 2.5 g; KIDNEY_L [8]: 1.3 g; KIDNEY_R [8]: 1.3 g; KIDNEY_TOTAL [8]: 2.6 g; LIVER [6]: 12.2 g; LIVER [7]: 13.1 g; LIVER [8]: 14.5 g; ALP [6]: 835.8 IU/L; AST [6]: 65.4 IU/L; BUN [6]: 16.8 mg/dL; CRE [6]: 0.5 mg/dL; DBIL [6]: 0.016 mg/dL; GLC [6]: 193.4 mg/dL; IP [6]: 7.7 mg/dL; K [6]: 5.1 meq/L; LDH [6]: 96.6 IU/L; Na [6]: 138.8 meq/L; PL [6]: 156.2 mg/dL; RALB [6]: 3.8 g/dL; TBIL [6]: 0.3 mg/dL; TC [6]: 80.6 mg/dL; TG [6]: 120.4 mg/dL; TP [6]: 5.8 g/dL; gamma-GTP [6]: 1.8 IU/L; ALP [7]: 712.2 IU/L; AST [7]: 56.6 IU/L; BUN [7]: 18.6 mg/dL; CRE [7]: 0.5 mg/dL; DBIL [7]: 0.04 mg/dL; GLC [7]: 190.2 mg/dL; IP [7]: 7.7 mg/dL; K [7]: 4.9 meq/L; LDH [7]: 75.8 IU/L; Na [7]: 140 meq/L; PL [7]: 159.8 mg/dL; RALB [7]: 3.9 g/dL; TBIL [7]: 0.3 mg/dL; TC [7]: 77.4 mg/dL; TG [7]: 168.2 mg/dL; TP [7]: 6.1 g/dL; gamma-GTP [7]: 0.8 IU/L; ALP [8]: 548.6 IU/L; AST [8]: 59.4 IU/L; BUN [8]: 18.6 mg/dL; CRE [8]: 0.6 mg/dL; DBIL [8]: 0.016 mg/dL; GLC [8]: 187.8 mg/dL; IP [8]: 7.1 mg/dL; K [8]: 4.3 meq/L; LDH [8]: 84.8 IU/L; Na [8]: 141.2 meq/L; PL [8]: 146.8 mg/dL; RALB [8]: 4.1 g/dL; TBIL [8]: 0.3 mg/dL; TC [8]: 76.8 mg/dL; TG [8]: 121.4 mg/dL; TP [8]: 6.3 g/dL; gamma-GTP [8]: 1.6 IU/L
